{"source": "patent US20250288567A1", "about": "“PHARMACEUTICAL COMPOSITION FOR TREATING PRESBYOPIA” (Sight Health Hong Kong Biotechnology Co., Limited, priority 2024, published 2025)", "key": {"[1]": {"system": "presbyopia patients", "assay": "Visual acuity before and after treatment with Huperzine A, TRAC1 and their combination (three patients)", "format": "in vivo, human", "design": "scale not given here", "procedure": "This hypothesis is tested by using 0.05%-0.3% Huperzine A and 0.05%-0.3% TRAC1. Three patients are treated with each drug, as well as the combination of both drugs."}, "[2]": {"system": "patients with astigmatism (UDVA less than 0.8)", "assay": "Uncorrected distance visual acuity (UDVA) of eyes with astigmatism after Huperzine A eye drops", "format": "in vivo, human", "details": "2 patients, 4 eyes with astigmatism", "procedure": "(§1) A non-randomized clinical case study involving 40 eyes of 20 presbyopia patients with uncorrected distance visual acuity (UDVA) of 0.4-1.0 and uncorrected near visual acuity (UNVA) of less than Jaeger1, aged 33-70 years is conducted. The patients are randomly divided into 3 groups, using eye drops with concentration of Huperzine A ranging from 0.1%-0.3% for clinical trials. Data are collected on changes in visual acuity, including UDVA, UNVA40, UNVA66, pupil diameter changes, and non-contact intraocular pressure, before and 30 minutes after Huperzine A eye drops. The data are grouped according to drug concentration and age and are analyzed. The discomfort symptoms appeared half an hour after using the eye drops are recorded, and the time when the relevant symptoms disappeared is obtained during the telephone interview in the following 3 days. A detailed description of the case study is further illustrated below.\nParticipants first complete a health declaration questionnaire with assistance from medical staff. They then measure their blood pressure and heart rate before undergoing computer optometry, as well as examinations for best corrected distance visual acuity and uncorrected distance visual acuity. They use the Jaeger score table to assess uncorrected reading visual acuity at 40 cm (UNVA40) and 66 cm (UNVA66) for computer visual acuity. […]"}, "[3]": {"system": "presbyopia patients", "assay": "Side effects reported by patients after Huperzine A eye drops", "details": "human, in vivo", "procedure": "as §1\nThe duration of these side effects varies from 2 to 5 hours and gradually relieves over time. Additionally, some patients report an increase in tear secretion after using the eye drops."}, "[4]": {"system": "presbyopia patients", "assay": "Non-randomized clinical case study of Huperzine A eye drops: uncorrected near visual acuity (UNVA40, UNVA66) before and 30 minutes after", "format": "in vivo, human", "procedure": "as §1\nThe clinical study of the present invention is conducted in March 2022 at a university hospital. Individuals over the age of 30 who feel their near vision has decreased are recruited and voluntarily participate in the test through a long-term open recruitment process. Inclusion criteria include best corrected distance visual acuity of 1.0, 40 cm reading visual acuity (UNVA40) or 66 cm computer visual acuity (UNVA66) lower than the Jaeger score J1, normal intraocular pressure, no history of retinal-related medical conditions, good general health, absence of systemic symptoms, and no rheumatic or systemic immune diseases.\nParticipants first complete a health declaration questionnaire with assistance from medical staff. They then measure their blood pressure and heart rate before undergoing computer optometry, as well as examinations for best corrected distance visual acuity and uncorrected distance visual acuity. They use the Jaeger score table to assess uncorrected reading visual acuity at 40 cm (UNVA40) and 66 cm (UNVA66) for computer visual acuity. Additionally, they have non-contact intraocular pressure measurements, pupil diameter assessments under room lighting, and a slit lamp examination by an experienced clinical ophthalmologist to rule out ocular diseases. Fundus photography is also performed.\nParticipants who meet the screening criteria are randomly divided into […]. One drop of 0.1%-0.3% Huperzine A eye drops is administered in each eye. After 30 minutes, the best corrected distance visual acuity, uncorrected distance visual acuity at 40 cm (UNVA40), and 66 cm computer visual acuity (UNVA66) are measured again, along with non-contact intraocular pressure and pupil diameter under room lighting.\nThe drug used in this present test is Huperzine A at a range of 0.1%-0.3% concentration, using standard ophthalmic dropper bottles, each yielding 40 μL drops and each drop effectively dispenses 0.1%-0.3%.\nThe collected data are organized so that J1+ is recorded as 0 on the Jaeger scale, J1 as 1, J2 as 2, and so forth.\nThe patients are grouped by age: 40 years old or below (2 people, 4 eyes), 41-50 years old (9 people, 18 eyes), 51-60 years old (6 people, 12 eyes), 61-70 years old (2 people, 4 eyes), and over 70 years old (1 people, 2 eyes)."}, "[5]": {"details": "Patient 1, Right eye (OD), Jaeger score, 0.05%-0.3%"}, "[6]": {"details": "Group 1, 40 years old or below, 2 people 4 eyes"}, "[7]": {"details": "Group 2, 41-50 years old, 9 people 18 eyes"}, "[8]": {"details": "Group 3, 51-60 years old, 6 people 12 eyes"}, "[9]": {"details": "Group 4, 61-70 years old, 2 people 4 eyes"}, "[10]": {"details": "Group 5, over 70 years old, 1 person 2 eyes"}, "[11]": {"details": "all patients, 20 patients 40 eyes, 0.1%-0.3% eye drops, 30 minutes after"}}, "note": "Several values for one entry are separate records, joined by “and”; a condition that tells them apart may be missing. Identical values can stand only once.", "data": [{"smiles": "C/C=C1\\[C@H]2C=C(C)C[C@]1(N)c1ccc(=O)[nH]c1C2", "note": "[Huperzine A]", "values": [{"measurement": "Near 40 cm, After treatment", "setting": "[1]; Patient 1, Left eye (OS)", "value": 3}, {"measurement": "Near 40 cm, Improvement", "setting": "[1]; Patient 1, Left eye (OS)", "value": 2}, {"measurement": "Near 66 cm, After treatment", "setting": "[1]; Patient 1, Left eye (OS)", "value": 2}, {"measurement": "Near 66 cm, Improvement", "setting": "[1]; Patient 1, Left eye (OS)", "value": 2}, {"measurement": "Near 40 cm, Improvement", "setting": "[1]; Patient 1, Right eye (OD)", "value": 3}, {"measurement": "Near 66 cm, After treatment", "setting": "[1]; Patient 1, Right eye (OD)", "value": 2}, {"measurement": "Near 66 cm, Improvement", "setting": "[1]; Patient 1, Right eye (OD)", "value": 2}, {"measurement": "Near 40 cm, After treatment", "setting": "[1]; [5]", "value": 3}, {"measurement": "Near 40 cm, After treatment", "setting": "[1]; Patient 2, Left eye (OS)", "value": 4}, {"measurement": "Near 40 cm, Improvement", "setting": "[1]; Patient 2, Left eye (OS)", "value": 5}, {"measurement": "Near 66 cm, After treatment", "setting": "[1]; Patient 2, Left eye (OS)", "value": 2}, {"measurement": "Near 66 cm, Improvement", "setting": "[1]; Patient 2, Left eye (OS)", "value": 4}, {"measurement": "Near 40 cm, After treatment", "setting": "[1]; Patient 2, Right eye (OD)", "value": 4}, {"measurement": "Near 40 cm, Improvement", "setting": "[1]; Patient 2, Right eye (OD)", "value": 6}, {"measurement": "Near 66 cm, After treatment", "setting": "[1]; Patient 2, Right eye (OD)", "value": 3}, {"measurement": "Near 66 cm, Improvement", "setting": "[1]; Patient 2, Right eye (OD)", "value": 3}, {"measurement": "Near 40 cm, After treatment", "setting": "[1]; Patient 3, Left eye (OS)", "value": 3}, {"measurement": "Near 40 cm, Improvement", "setting": "[1]; Patient 3, Left eye (OS)", "value": 8}, {"measurement": "Near 66 cm, After treatment", "setting": "[1]; Patient 3, Left eye (OS)", "value": 3}, {"measurement": "Near 66 cm, Improvement", "setting": "[1]; Patient 3, Left eye (OS)", "value": 6}, {"measurement": "Near 40 cm, After treatment", "setting": "[1]; Patient 3, Right eye (OD)", "value": 2}, {"measurement": "Near 40 cm, Improvement", "setting": "[1]; Patient 3, Right eye (OD)", "value": 6}, {"measurement": "Near 66 cm, After treatment", "setting": "[1]; Patient 3, Right eye (OD)", "value": 2}, {"measurement": "Near 66 cm, Improvement", "setting": "[1]; Patient 3, Right eye (OD)", "value": 5}, {"measurement": "UDVA increase after Huperzine A eye drops", "setting": "[2]", "value": "0.2 and 0.1"}, {"measurement": "lacrimation (side effect)", "setting": "[3]", "value": 6, "unit": "%"}, {"measurement": "N40 improved", "setting": "[4]; [6]", "value": 2.25, "unit": "J"}, {"measurement": "N66 improved", "setting": "[4]; [6]", "value": 1.50, "unit": "J"}, {"measurement": "UNVA40 after treatment (Near 40, After)", "setting": "[4]; [6]", "value": 1.00, "unit": "J"}, {"measurement": "UNVA66 after treatment (Near 66, After)", "setting": "[4]; [6]", "value": 2.75, "unit": "J"}, {"measurement": "N40 improved", "setting": "[4]; [7]", "value": "3.05 J and 3.06 J"}, {"measurement": "N66 improved", "setting": "[4]; [7]", "value": 1.72, "unit": "J"}, {"measurement": "UNVA40 after treatment (Near 40, After)", "setting": "[4]; [7]", "value": 1.89, "unit": "J"}, {"measurement": "UNVA66 after treatment (Near 66, After)", "setting": "[4]; [7]", "value": 1.61, "unit": "J"}, {"measurement": "N40 improved", "setting": "[4]; [8]", "value": 1.92, "unit": "J"}, {"measurement": "N66 improved", "setting": "[4]; [8]", "value": 2.33, "unit": "J"}, {"measurement": "UNVA40 after treatment (Near 40, After)", "setting": "[4]; [8]", "value": 3.75, "unit": "J"}, {"measurement": "UNVA66 after treatment (Near 66, After)", "setting": "[4]; [8]", "value": 3.67, "unit": "J"}, {"measurement": "N40 improved", "setting": "[4]; [9]", "value": 3.75, "unit": "J"}, {"measurement": "N66 improved", "setting": "[4]; [9]", "value": 2.00, "unit": "J"}, {"measurement": "UNVA40 after treatment (Near 40, After)", "setting": "[4]; [9]", "value": 2.25, "unit": "J"}, {"measurement": "UNVA66 after treatment (Near 66, After)", "setting": "[4]; [9]", "value": 3.00, "unit": "J"}, {"measurement": "N40 improved", "setting": "[4]; [10]", "value": 6.00, "unit": "J"}, {"measurement": "N66 improved", "setting": "[4]; [10]", "value": 4.50, "unit": "J"}, {"measurement": "UNVA40 after treatment (Near 40, After)", "setting": "[4]; [10]", "value": 7.00, "unit": "J"}, {"measurement": "UNVA66 after treatment (Near 66, After)", "setting": "[4]; [10]", "value": 4.00, "unit": "J"}, {"measurement": "N40 improved (average improvement of UNVA40)", "setting": "[4]; [11]", "value": 2.85, "unit": "J"}, {"measurement": "N66 improved (average improvement of UNVA66)", "setting": "[4]; [11]", "value": 2.05, "unit": "J"}, {"measurement": "UNVA66 after treatment (Near 66, After)", "setting": "[4]; all patients, 20 patients 40 eyes, 0.1%-0.3% eye drops, 30 minutes after, Jaeger score", "value": 2.60, "unit": "J"}, {"measurement": "UNVA40 after treatment (Near 40, After)", "setting": "[4]; all patients, 20 patients 40 eyes, 0.1%-0.3% eye drops, 30 minutes after, Jaeger score, J1+ = 0", "value": 2.65, "unit": "J"}, {"measurement": "effect on near vision, 41-50-year-old group compared with 51-60-year-old group", "setting": "[4]; human, in vivo", "value": "more significant effect on the former group"}]}, {"smiles": "Nc1c2c(nc3ccccc13)CCCC2", "note": "[Tacrine]", "values": [{"measurement": "Near 40 cm, After treatment", "setting": "[1]; Patient 1, Left eye (OS)", "value": 3}, {"measurement": "Near 40 cm, Improvement", "setting": "[1]; Patient 1, Left eye (OS)", "value": 2}, {"measurement": "Near 66 cm, After treatment", "setting": "[1]; Patient 1, Left eye (OS)", "value": 2}, {"measurement": "Near 66 cm, Improvement", "setting": "[1]; Patient 1, Left eye (OS)", "value": 2}, {"measurement": "Near 40 cm, Improvement", "setting": "[1]; Patient 1, Right eye (OD)", "value": 3}, {"measurement": "Near 66 cm, After treatment", "setting": "[1]; Patient 1, Right eye (OD)", "value": 2}, {"measurement": "Near 66 cm, Improvement", "setting": "[1]; Patient 1, Right eye (OD)", "value": 2}, {"measurement": "Near 40 cm, After treatment", "setting": "[1]; [5]", "value": 3}, {"measurement": "Near 40 cm, After treatment", "setting": "[1]; Patient 2, Left eye (OS)", "value": 4}, {"measurement": "Near 40 cm, Improvement", "setting": "[1]; Patient 2, Left eye (OS)", "value": 5}, {"measurement": "Near 66 cm, After treatment", "setting": "[1]; Patient 2, Left eye (OS)", "value": 2}, {"measurement": "Near 66 cm, Improvement", "setting": "[1]; Patient 2, Left eye (OS)", "value": 4}, {"measurement": "Near 40 cm, After treatment", "setting": "[1]; Patient 2, Right eye (OD)", "value": 4}, {"measurement": "Near 40 cm, Improvement", "setting": "[1]; Patient 2, Right eye (OD)", "value": 6}, {"measurement": "Near 66 cm, After treatment", "setting": "[1]; Patient 2, Right eye (OD)", "value": 3}, {"measurement": "Near 66 cm, Improvement", "setting": "[1]; Patient 2, Right eye (OD)", "value": 3}, {"measurement": "Near 40 cm, After treatment", "setting": "[1]; Patient 3, Left eye (OS)", "value": 3}, {"measurement": "Near 40 cm, Improvement", "setting": "[1]; Patient 3, Left eye (OS)", "value": 8}, {"measurement": "Near 66 cm, After treatment", "setting": "[1]; Patient 3, Left eye (OS)", "value": 3}, {"measurement": "Near 66 cm, Improvement", "setting": "[1]; Patient 3, Left eye (OS)", "value": 6}, {"measurement": "Near 40 cm, After treatment", "setting": "[1]; Patient 3, Right eye (OD)", "value": 2}, {"measurement": "Near 40 cm, Improvement", "setting": "[1]; Patient 3, Right eye (OD)", "value": 6}, {"measurement": "Near 66 cm, After treatment", "setting": "[1]; Patient 3, Right eye (OD)", "value": 2}, {"measurement": "Near 66 cm, Improvement", "setting": "[1]; Patient 3, Right eye (OD)", "value": 5}]}]}
